{"source": "patent US8420606B2", "about": "“Method of utilizing physiological activity of rare saccharide and composition containing rare saccharide” (priority 2002, dated 2013)", "key": {"[1]": {"test_system": "Rat leukocyte (granulocyte)", "assay": "production of active oxygen from leukocyte, LO12 chemiluminescence, zymosan", "format": "cell-based", "settings": "for production of active oxygen from leukocyte: saccharide 10 mM added to the producing system, zymosan", "method": "Influences of various kinds of rare saccharides upon production of active oxygen from leukocyte were examined under the conditions given below. In this Example 5, an effect against the production of active oxygen from leukocyte was examined with LO12 chemiluminescence.\n(1) Target leukocyte to which the rare saccharides were added: Rat leukocyte (granulocyte) was used.\n(2) Rare saccharides added: In addition to D-allose as a rare saccharide belonging to aldose, D-psicose and D-altros as rare saccharides belonging to ketose and D-tallitol belong to polyol were added as other comparative saccharides. Further, D-glucose and D-fructose were employed as saccharides abundant in the natural world.\n(3) Experiment method: (1) Changes over time in production of active oxygen from rat leukocyte . . . The time-dependent progress in production of active oxygen caused by adding zymosan particles to rat leukocyte (granulocyte) was examined. Also, the time-dependent progress in production of active oxygen caused under the presence of each of the rare saccharides was examined.\n(2) Influences of rare saccharides upon production of active oxygen . . . By adding the various saccharides to the system for producing active oxygen from leukocyte, the amount of produced active oxygen was measured for each saccharide. The concentration of each of the added rare saccharides was set to 10 mM. Also, the measurement was made under the condition without addition of any saccharides.\n(3) Effect of rare saccharides upon production of active oxygen . . . The rare saccharides were each added at concentration of 10 mM after the start of phagocytosis and the start of the production of active oxygen subsequent to addition of zymosan to leukocyte.\n(4) Concentration dependency of active-oxygen production inhibitory effect of D-allose . . . Concentration dependency of the active-oxygen production inhibitory effect of D-allose was examined. D-allose was added at concentration of 0 mM, 5 mM and 10 mM."}, "[2]": {"molecular_target": "human albumin (Homo sapiens, UniProt P02768)", "sequence (P02768 25-609)": "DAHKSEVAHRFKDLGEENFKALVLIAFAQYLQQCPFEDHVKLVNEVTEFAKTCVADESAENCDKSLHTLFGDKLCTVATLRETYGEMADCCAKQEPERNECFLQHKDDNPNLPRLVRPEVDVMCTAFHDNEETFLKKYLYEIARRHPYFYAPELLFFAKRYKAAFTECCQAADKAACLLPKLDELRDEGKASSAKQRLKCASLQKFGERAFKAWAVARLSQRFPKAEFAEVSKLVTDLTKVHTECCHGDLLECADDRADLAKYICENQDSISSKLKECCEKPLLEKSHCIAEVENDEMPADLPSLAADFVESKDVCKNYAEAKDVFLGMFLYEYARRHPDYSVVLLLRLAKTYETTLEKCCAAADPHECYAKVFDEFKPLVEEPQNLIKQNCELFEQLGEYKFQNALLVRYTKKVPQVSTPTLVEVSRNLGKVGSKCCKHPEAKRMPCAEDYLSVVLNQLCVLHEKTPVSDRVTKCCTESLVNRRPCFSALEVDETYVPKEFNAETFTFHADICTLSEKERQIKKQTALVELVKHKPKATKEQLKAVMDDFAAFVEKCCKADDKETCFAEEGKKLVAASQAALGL", "assay": "saccharification (glycation) of albumin, glycoalbumin reagent", "format": "biochemical", "settings": "albumin 3 g/dl", "method": "(2) Method: After fragmenting albumin into amino acids by using protease K, i.e., glycoalbumin (GA) measurement reagent (made by Oriental Yeast Co., Ltd.), glycolysine was measured by using ketoamine oxydase (see FIG. 38). Glycation of human albumin with various rare saccharides was examined. A sample was prepared through the steps of dissolving 3 g/dl of pure human albumin in PBS and then dissolving each of the rare saccharides so as to prepare a solution in final concentration of 55.5 mM. The prepared solution was filtrated with a filter of 0.25 μm mesh and sterilized, followed by incubation at 37° C. for 7 days. During the incubation, the GA concentration (glycolysine concentration) was measured at intervals of exactly 24 hours. Further, similar experiments were conducted by adding each of the rare saccharides in an albumin solution (final concentration 3 g/dl) and a glucose solution (final concentration 55.5 mM) so that each of the rare saccharides had final concentration of 55.5 mM."}, "[3]": {"assay": "rat blood-sugar value after intravenous saccharide under anesthesia", "format": "in vivo", "settings": "for blood sugar value: 200 mg/kg BW intravenous, normal rats under anesthesia, fasted", "method": "(2) Method: 1) Administration of rare saccharide: An SD male rat (with weight of about 300 g) was employed in an experiment after fasting for 20 to 24 hours. Nembutal (58 mg/kg B.W) was applied to the rat through abdominal administration, and after cutting the neck under anesthesia, a silicon tube was fixedly kept inserted in the jugular vein. A 1-ml syringe was connected to the silicon tube for administration of the rare saccharide. 2) Blood-collecting: Blood was collected by using the 1-ml syringe through the silicon tube inserted in the jugular vein. The blood-collecting was made immediately before the administration of the rare saccharide and then after 5, 10, 15, 20, 25, 30, 60, 120, 180 and 240 minutes from the same. 3) Blood sugar measurement: The blood sugar value in the collected blood was measured by using Antosense II (made by Bayer Medical)."}, "[4]": {"test_system": "hippocampus neurons", "assay": "temporary brain ischemia, survival of hippocampus neurons", "format": "in vivo, gerbil", "settings": "for necrosis of hippocampus neurons caused by ischemia: 200 mg/kg before ischemia, 5 minutes ischemia, after 1 week", "method": "(2) Method: The bilateral common carotid artery of a gerbil was shut off for 5 minutes. After 1 week, the gerbil was sacrificed and a sample was prepared in accordance with the ordinary method, followed by hematoxyline eosin dyeing. The survival rate was measured by counting the number of hippocampus neurons while looking at them under a microscope. Experiments were performed on a normal control group, a group subjected to only ischemia, and a group administrated with 200 mg/kg of D-allose or D-psicose before ischemia. It is known that glutamates released in large amount from the neurons with ischemia are toxic to the neurons. Such a point was examined by fixing the gerbil to a brain position fixing device, perfusing a solution, in which oxidase glutamate is dissolved, to the hippocampus through a probe for micro-dialysis, and measuring the glutamate concentration outside the hippocampus neurons. Also, the inventors have clarified the relationship between the metabolism of glucose and the action mechanism of D-allose with ischemia by pre-administrating D-allose and 2-deoxiglucose."}, "[5]": {"test_system": "Pancreas β-cell strains INS-1", "assay": "insulin secretion from pancreas β-cell strain, ELISA", "format": "cell-based, rat", "settings": "for concentration at which insulin secretion stimulus reached a plateau / insulin secretion into culture medium: saccharide alone; for insulin secretion into culture medium: 2.8-16.7 mM", "method": "Pancreas β-cell strains INS-1 derived from insulinoma were cultured under the culture medium condition of (DMEM +10% FBS) in accordance with the ordinary method. The INS-1 cells at density of about 70% were pipitted into a 96-well culture dish, and the following experiments were performed. D-psicose was used as the ketohexose belonging to the rare saccharides.\nAfter cultivation for 24 hours with the glucose concentration in the culture medium set to 2.8 mM, 5.6 mM, 11.2 mM and 16.7 mM, the insulin concentration in the culture medium was measured by using an ELISA (insulin kit).\nBy using the ELISA method, the insulin concentration in the culture medium was measured while the D-psicose concentration in the culture medium was changed to 0 mM, 2.8 mM, 5.6 mM, 11.2 mM and 16.7 mM."}, "[6]": {"settings": "saccharide 55.5 mM + D-glucose 55.5 mM"}, "[7]": {"settings": "saccharide 55.5 mM, 37° C., 7 days"}}, "note": "Entries after “also recorded” stand apart in the source; their conditions may differ."}
{"smiles": "O=C[C@H](O)[C@H](O)[C@H](O)[C@H](O)CO", "note": "[D-allose]", "values": [{"measurement": "effective concentration for active-oxygen production inhibition", "setting": "[1]; 0, 5 and 10 mM tested", "result": "approximately 10 mM"}, {"measurement": "production of active oxygen, saccharide added after start of production", "setting": "[1]; 10 mM added after start of phagocytosis and of active oxygen production", "result": "the inhibitory effect was found"}, {"measurement": "active-oxygen production inhibitory effect", "setting": "[1]; D-allose 5 mM", "result": "did not appear"}, {"measurement": "inhibition at 10000 µM", "setting": "[1]; Rattus norvegicus, Leukocyte, D-allose 10 mM, read-out: active-oxygen production inhibitory effect", "result": "≥ 50", "unit": "%"}, {"measurement": "production of active oxygen from leukocyte", "setting": "[1]", "result": "inhibited; also recorded: has an effect of inhibiting production of active oxygen; also recorded: very strong effect of inhibiting the production of active oxygen"}, {"measurement": "saccharification rate of albumin under coexistence with glucose", "setting": "[2]; [6]", "result": "about 140 μmol/day"}, {"measurement": "saccharification rate of albumin", "setting": "[2]; [7]", "result": "about 90 μmol/day"}, {"measurement": "blood sugar value", "setting": "[3]", "result": "no hypoglycemic was found"}, {"measurement": "necrosis of hippocampus neurons caused by ischemia", "setting": "[4]", "result": "significantly inhibited necrosis"}, {"measurement": "hippocampus neurons alive after ischemia", "setting": "[4]; ischemia for 5 minutes, rat brains as printed, solution containing D-allose perfused before the ischemia, 80% died without", "result": 70, "unit": "%"}]}
{"smiles": "O=C[C@H](O)[C@@H](O)[C@H](O)[C@H](O)CO", "note": "[D-glucose, reference compound]", "values": [{"measurement": "production of active oxygen from leukocyte", "setting": "[1]", "result": "No inhibitory effect"}, {"measurement": "concentration at which insulin secretion stimulus reached a plateau", "setting": "[5]", "result": 11.2, "unit": "mM"}, {"measurement": "insulin secretion into culture medium", "setting": "[5]; 24 hours", "result": "the insulin secretion from the cells was stimulated"}, {"measurement": "saccharification rate of albumin", "setting": "[2]; [7]", "result": "about 50 μmol/day"}, {"measurement": "blood sugar value", "setting": "[3]", "result": "temporarily increased"}, {"measurement": "time until blood sugar value approached a normal value", "setting": "[3]; D-glucose 200 mg/kg BW intravenous", "result": "about 60 minutes"}]}
{"smiles": "O=C(CO)[C@H](O)[C@H](O)[C@H](O)CO", "note": "[D-psicose]", "values": [{"measurement": "production of active oxygen from leukocyte", "setting": "[1]", "result": "No inhibitory effect"}, {"measurement": "insulin secretion with D-psicose added to glucose", "setting": "[5]; glucose fixed at 11.2 mM, psicose 2.8-16.7 mM, 24 hours", "result": "further stimulated in an additive way; also recorded: further promoted"}, {"measurement": "concentration at which insulin secretion stimulus reached a plateau", "setting": "[5]", "result": 11.2, "unit": "mM"}, {"measurement": "insulin secretion into culture medium", "setting": "[5]; 24 hours", "result": "insulin was secreted depending on the D-psicose concentration; also recorded: a reaction of secreting insulin depending on the concentration of D-psicose was found"}, {"measurement": "effect of inhibiting glycation under coexistence with glucose", "setting": "[2]; [6]", "result": "not found"}, {"measurement": "glycation (saccharification) of albumin", "setting": "[2]; [7]", "result": "not found; also recorded: does not promote saccharification of albumin"}, {"measurement": "blood sugar value", "setting": "[3]", "result": "light hypoglycemic"}, {"measurement": "blood sugar value", "setting": "[3]; listed as Psicose", "result": "reduced during a period of 30 to 60 minutes"}, {"measurement": "necrosis of hippocampus neurons caused by ischemia", "setting": "[4]", "result": "not found; also recorded: not confirmed"}]}
